Data published in patent US20250388574A1, “HETEROCYCLIC COMPOUNDS AS TRIGGERING RECEPTOR EXPRESSED ON MYELOID CELLS 2 AGONISTS AND METHODS OF USE” (AMGEN INC., priority 2020, published 2025).

Target: hTREM2 (Homo sapiens, UniProt Q9NZC2)
Test: Phospho-Syk AlphaScreen/AlphaLISA assay in TREM2 and DAP12 overexpressing HEK293 cells (Example A1)
Format: cell-based
Set-up: expressed in transfected cells
Conditions: HEK293 cells; for EC50: read-out: hTREM2 EC50
Method in brief: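 Agonism read as Syk phosphorylation: compounds in 1% DMSO applied 45 min at room temperature to TREM2/DAP12-HEK293 cells after 20 h culture. Lysis buffer with phosphatase inhibitors and anti-phospho-Syk plus biotinylated anti-Syk antibodies, then AlphaLISA beads (680 nm excitation); percent of control computed from antibody/isotype wells, curves fitted sigmoidally.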

Sequence of hTREM2 (Q9NZC2 19-230): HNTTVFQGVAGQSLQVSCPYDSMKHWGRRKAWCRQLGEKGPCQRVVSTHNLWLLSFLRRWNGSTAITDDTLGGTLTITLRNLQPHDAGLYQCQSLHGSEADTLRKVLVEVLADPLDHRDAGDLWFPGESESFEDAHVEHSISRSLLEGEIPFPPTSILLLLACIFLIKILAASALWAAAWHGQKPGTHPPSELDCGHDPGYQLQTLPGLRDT
Sequence of hTREM2 (O43914 22-113 partner): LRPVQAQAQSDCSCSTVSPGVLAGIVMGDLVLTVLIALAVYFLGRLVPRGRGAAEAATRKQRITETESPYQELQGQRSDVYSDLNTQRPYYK

Row | Compound | Emax | EC50
1 | Cc1ncc([C@H]2CN(c3cc4nc(C)n(C)c(=O)c4c(-c4ccc(Cl)cc4F)n3)CCO2)cn1 (single isomer, unassigned) [Example 65] | ++ (Emax>100 and ≤200) | 3000 to 100000 nM
2 | CCCn1c(C)nc2cc(N3CCO[C@H](CF)C3)nc(-c3ccc(Cl)cc3F)c2c1=O [Example 193, (S)-5-(4-chloro-2-fluorophenyl)-7-(2-(fluoromethyl)morpholino)-2-methyl-3-propylpyrido[4,3-d]pyrimidin-4(3H)-one] | +++ (Emax>200 and ≤300) | 500 to 3000 nM
3 | Cc1nc2cc(N3CCO[C@H](c4ccnc(Cl)c4)C3)nc(-c3ccc(Cl)cc3F)c2c(=O)n1C (single isomer, unassigned) [Example 88] | +++ (Emax>200 and ≤300) | 500 to 3000 nM
4 | Cc1cnn([C@H]2CCN(c3cc4nc(C)n(C)c(=O)c4c(-c4ccc(Cl)cc4F)n3)C2)c1 [Example 204, (S)-5-(4-chloro-2-fluorophenyl)-2,3-dimethyl-7-(3-(4-methyl-1H-pyrazol-1-yl)pyrrolidin-1-yl)pyrido[4,3-d]pyrimidin-4(3H)-one] | + (Emax>45 and ≤100) | 3000 to 100000 nM
5 | Cc1nc2cc(C3=CC(c4cnn(C)c4)OCC3)nc(-c3ccc(Cl)cc3F)c2c(=O)n1C (racemic) [Example 164, 5-(4-chloro-2-fluorophenyl)-2,3-dimethyl-7-(6-(1-methyl-1H-pyrazol-4-yl)-3,6-dihydro-2H-pyran-4-yl)pyrido[4,3-d]pyrimidin-4(3H)-one] | +++ (Emax>200 and ≤300) | 50 to 500 nM
6 | Cc1nc2cc(N3CCO[C@@H](c4cnn(C)c4)C3)nc(-c3ccc(F)cc3)c2c(=O)n1C [Example 229, (S)-5-(4-fluorophenyl)-2,3-dimethyl-7-(2-(1-methyl-1H-pyrazol-4-yl)morpholino)pyrido[4,3-d]pyrimidin-4(3H)-one] | ++++ (Emax>300) | 500 to 3000 nM
7 | Cc1nc2cc(N3CCc4cnn(C)c4C3)nc(-c3ccc(Cl)cc3F)c2c(=O)n1C [Example 104, 5-(4-chloro-2-fluorophenyl)-2,3-dimethyl-7-(1-methyl-1,4,5,7-tetrahydro-6H-pyrazolo[3,4-c]pyridin-6-yl)pyrido[4,3-d]pyrimidin-4(3H)-one] | ++++ (Emax>300) | 50 to 500 nM
8 | Cc1nnc([C@H]2CN(c3cc4nc(C)n(C)c(=O)c4c(-c4ccc(Cl)cc4F)n3)CCO2)o1 [Example 271, (R)-5-(4-chloro-2-fluorophenyl)-2,3-dimethyl-7-(2-(5-methyl-1,3,4-oxadiazol-2-yl)morpholino)pyrido[4,3-d]pyrimidin-4(3H)-one] | +++ (Emax>200 and ≤300) | 50 to 500 nM
9 | Cc1nc2cc(N3CCO[C@@H](c4ccc(OCC(F)(F)F)nc4)C3)nc(-c3ccc(Cl)cc3F)c2c(=O)n1C [Example 236, (S)-5-(4-chloro-2-fluorophenyl)-2,3-dimethyl-7-(2-(6-(2,2,2-trifluoroethoxy)pyridin-3-yl)morpholino)pyrido[4,3-d]pyrimidin-4(3H)-one] | ++ (Emax>100 and ≤200) | 3000 to 100000 nM
10 | Cc1nc2cc(N3CCO[C@H](c4cnn(C)c4)C3)nc(-c3ccc(Cl)cc3F)c2c(=O)n1C [Example 189, (R)-5-(4-chloro-2-fluorophenyl)-2,3-dimethyl-7-(2-(1-methyl-1H-pyrazol-4-yl)morpholino)pyrido[4,3-d]pyrimidin-4(3H)-one] | ++++ (Emax>300) | 50 to 500 nM
11 | Cc1nc2cc(N3CCO[C@H](c4cnn(C)c4)C3)nc(-c3ncc(Cl)cc3F)c2c(=O)n1C [Example 217, (R)-5-(5-chloro-3-fluoropyridin-2-yl)-2,3-dimethyl-7-(2-(1-methyl-1H-pyrazol-4-yl)morpholino)pyrido[4,3-d]pyrimidin-4(3H)-one] | +++ (Emax>200 and ≤300) | 3000 to 100000 nM
12 | COc1ccc([C@@H]2CN(c3cc4nc(C)n(C)c(=O)c4c(-c4ccc(Cl)cc4F)n3)CCO2)cc1 (single isomer, unassigned) [Example 79] | +++ (Emax>200 and ≤300) | 500 to 3000 nM
13 | Cc1nc2cc(N3CCCC(c4cnco4)C3)nc(-c3ccc(Cl)cc3F)c2c(=O)n1C (centres unmarked) [Example 105, 5-(4-chloro-2-fluorophenyl)-2,3-dimethyl-7-(3-(1,3-oxazol-5-yl)-1-piperidinyl)pyrido[4,3-d]pyrimidin-4(3H)-one] | ++++ (Emax>300) | 50 to 500 nM
14 | Cc1nc2cc(N3CCOC(c4ccnnc4)C3)nc(-c3ccc(Cl)cc3F)c2c(=O)n1C (centres unmarked) [Example 50, 5-(4-chloro-2-fluorophenyl)-2,3-dimethyl-7-(2-(4-pyridazinyl)-4-morpholinyl)pyrido[4,3-d]pyrimidin-4(3H)-one] | ++++ (Emax>300) | 50 to 500 nM
15 | Cc1nc2cc(N3CCO[C@H](c4ccccn4)C3)nc(-c3ccc(Cl)cc3F)c2c(=O)n1C [Example 209, (S)-5-(4-chloro-2-fluorophenyl)-2,3-dimethyl-7-(2-(pyridin-2-yl)morpholino)pyrido[4,3-d]pyrimidin-4(3H)-one] | +++ (Emax>200 and ≤300) | 500 to 3000 nM
16 | Cc1nc2cc(N3CCOC(c4ccnn4C)C3)nc(-c3ccc(Cl)cc3F)c2c(=O)n1C (centres unmarked) [Example 52, 5-(4-chloro-2-fluorophenyl)-2,3-dimethyl-7-(2-(1-methyl-1H-pyrazol-5-yl)-4-morpholinyl)pyrido[4,3-d]pyrimidin-4(3H)-one] | ++++ (Emax>300) | 500 to 3000 nM
17 | Cc1nc2cc(N3CCc4cnccc4C3)nc(-c3ccc(Cl)cc3F)c2c(=O)n1C [Example 101, 5-(4-chloro-2-fluorophenyl)-7-(3,4-dihydro-2,6-naphthyridin-2(1H)-yl)-2,3-dimethylpyrido[4,3-d]pyrimidin-4(3H)-one] | +++ (Emax>200 and ≤300) | 500 to 3000 nM

Now from value to molecule:

Row | Emax | EC50 | Compound
18 | +++ (Emax>200 and ≤300) | 50 to 500 nM | Cc1nc2cc(N3CCO[C@@H](c4cnn(C)c4)C3)nc(-c3ccc(Cl)cc3F)c2c(=O)n1C [Example 1, 5-(4-chloro-2-fluorophenyl)-2,3-dimethyl-7-((2S)-2-(1-methyl-1H-pyrazol-4-yl)-4-morpholinyl)pyrido[4,3-d]pyrimidin-4(3H)-one]
19 | ++++ (Emax>300) | 50 to 500 nM | Cc1nc2cc(N3CCO[C@@H](c4cnn(C)c4)C3)nc(-c3ccc(Cl)cc3F)c2c(=O)n1C1CC1 [Example 20, 5-(4-chloro-2-fluorophenyl)-3-cyclopropyl-2-methyl-7-((2S)-2-(1-methyl-1H-pyrazol-4-yl)-4-morpholinyl)pyrido[4,3-d]pyrimidin-4(3H)-one]
20 | ++++ (Emax>300) | 50 to 500 nM | COc1cc([C@H]2C[C@H](c3cc4nc(C)n(C)c(=O)c4c(-c4ccc(Cl)cc4F)n3)CCO2)ccn1 (single isomer, unassigned) [Example 174]
21 | ++++ (Emax>300) | 50 to 500 nM | Cc1nc2cc(N3CCO[C@@H](c4cnn(C)c4)C3)nc(-c3ccc(F)cc3F)c2c(=O)n1C [Example 8, 5-(2,4-difluorophenyl)-2,3-dimethyl-7-((2S)-2-(1-methyl-1H-pyrazol-4-yl)-4-morpholinyl)-pyrido[4,3-d]pyrimidin-4(3H)-one]
22 | +++ (Emax>200 and ≤300) | 50 to 500 nM | Cc1nc2cc(N3CCC(C(F)F)C3)nc(-c3ccc(Cl)cc3F)c2c(=O)n1C (centres unmarked) [Example 120, 5-(4-chloro-2-fluorophenyl)-7-(3-(difluoromethyl)-1-pyrrolidin-yl)-2,3-dimethylpyrido[4,3-d]pyrimidin-4(3H)-one]
23 | ++++ (Emax>300) | 50 to 500 nM | Cc1nc2cc(N3CCO[C@@H](c4cnn(C5CN(C(=O)OC(C)(C)C)C5)c4)C3)nc(-c3ccc(Cl)cc3F)c2c(=O)n1C [Example 134, 2-methyl-2-propanyl 3-(4-((2S)-4-(5-(4-chloro-2-fluorophenyl)-2,3-dimethyl-4-oxo-3,4-dihydropyrido[4,3-d]pyrimidin-7-yl)-2-morpholinyl)-1H-pyrazol-1-yl)-1-azetidinecarboxylate]
24 | ++++ (Emax>300) | 50 to 500 nM | CCn1c(C(F)(F)F)nc2cc(N3CCO[C@@H](c4cnn(C)c4)C3)nc(-c3ccc(Cl)cc3F)c2c1=O [Example 144, 5-(4-chloro-2-fluorophenyl)-3-ethyl-7-((2S)-2-(1-methyl-1H-pyrazol-4-yl)-4-morpholinyl)-2-(trifluoromethyl)pyrido[4,3-d]pyrimidin-4(3H)-one]
25 | +++ (Emax>200 and ≤300) | 50 to 500 nM | Cc1nc2cc(N3CCO[C@@H](c4cnn(C)c4)C3)nc(-c3ccc(F)c(F)c3F)c2c(=O)n1C [Example 9, 2,3-dimethyl-7-((2S)-2-(1-methyl-1H-pyrazol-4-yl)-4-morpholinyl)-5-(2,3,4-trifluorophenyl)pyrido[4,3-d]pyrimidin-4(3H)-one]
26 | +++ (Emax>200 and ≤300) | < 50 nM | CCCn1c(C)nc2cc(N3CCO[C@@H](c4cnn(C)c4)C3)nc(-c3ccc(Cl)cc3F)c2c1=O [Example 152, 5-(4-chloro-2-fluorophenyl)-2-methyl-7-((2S)-2-(1-methyl-1H-pyrazol-4-yl)-4-morpholinyl)-3-propylpyrido[4,3-d]pyrimidin-4(3H)-one]
27 | ++++ (Emax>300) | < 50 nM | Cc1nc2cc(N3CCO[C@@H](c4cnn(C5COC5)c4)C3)nc(-c3ccc(Cl)cc3F)c2c(=O)n1C [Example 125, 5-(4-chloro-2-fluorophenyl)-2,3-dimethyl-7-((2S)-2-(1-(3-oxetanyl)-1H-pyrazol-4-yl)-4-morpholinyl)pyrido[4,3-d]pyrimidin-4(3H)-one]
28 | ++++ (Emax>300) | < 50 nM | COc1cc([C@H]2C[C@@H](c3cc4nc(C)n(C)c(=O)c4c(-c4ccc(Cl)cc4F)n3)CCO2)ccn1 (single isomer, unassigned) [Example 172]
